# Experimental data as given in patent US12138256B2, “Treatment of cardiopulmonary disorders” (Bayer Aktiengesellschaft, priority 2021, dated 2024).
# Like-named read-outs stand apart in the source and are kept apart here.
# Tests used:
# rabbit saphenous artery = assay: Vasorelaxant effect in vitro: phenylephrine-induced contraction of rabbit saphenous artery rings (C-1.1); conditions: for IC50: Oryctolagus cuniculus, read-out: IC50, inhibition of phenylephrine induced contractions of rabbit saphenous artery rings; for % contraction (PE-induced contraction of rabbit saphenous artery): mean +/− SEM
# Description: Rabbits were anaesthetized and sacrificed by intravenous injection of thiopental sodium (about 50 mg/kg) and exsanguinated. The saphenous artery was removed and divided into rings 3 mm wide. The rings were mounted singly on in each case a pair of triangular hooks open at the end and made of 0.3 mm-thick special wire (Remanium®). Each ring was placed under an initial tension in 5 ml organ baths with Krebs-Henseleit solution which was at 37° C., was gassed with carbogen and had the following composition: NaCl 119 mM; KCl 4.8 mM; CaCl2)×2 H2O 1 mM; MgSO4×7 H2O 1.4 mM; KH2PO41.2 mM; NaHCO325 mM; glucose 10 mM; bovine serum albumin 0.001%. The force of contraction was detected with Statham UC2 cells, amplified and digitized via A/D converters (DAS-1802 HC, Keithley Instruments, Munich) and recorded in parallel on chart recorders. Contractions were induced by addition of phenylephrine.
# The concentration necessary to reduce the contraction reached in the preceding control by 50% was calculated from this (IC50). The standard application volume was 5 μl. The proportion of DMSO in the bath solution corresponded to 0.1%.
# [1] = Caco-2 permeability test (C-5.1); format: in vitro ADME, human; conditions: human; for efflux ratio at 2 h, 2 μM / Papp A→B at 2 h, 2 μM / Papp B→A at 2 h, 2 μM: Caco-2 (2 μM); for Papp A→B at 2 h, 2 μM / Papp B→A at 2 h, 2 μM: concentration per compound 2.0 or 2.4 μM; for Papp A→B at 2 h, 2 μM: read-out: Papp A-B (mean +/− SD); for Papp B→A at 2 h, 2 μM: read-out: Papp B-A (mean +/− SD)
# Description: The in vitro permeation of a test compound across a Caco-2 cell monolayer is a well-established assay system to predict the permeability from the gastro-intestinal tract (1). The permeability of the compounds of the present invention in such Caco-2 cells was determined as described below:
# Human caco-2 cells were seeded on 24-well insert plates and were allowed to grow for 14-16 days. For permeability studies, the test compounds were dissolved in DMSO and diluted to the final test concentration of 2 μM with transport buffer [Hanks' Buffered Salt Solution, Gibco/Invitrogen, further supplemented with glucose and HEPES]. For determination of the apical to basolateral permeability (PappA-B), the test compound solution was added to the apical side of the cell monolayer and transport buffer to the basolateral side of the monolayer; for determination of the basolateral to apical permeability (PappB-A), the test compound solution was added to the basolateral side of the cell monolayer and transport buffer to the apical side of the monolayer. Samples were taken from the donor compartment at the beginning of the experiment to confirm mass balance. After an incubation of 2 h at 37° C., samples were taken from both compartments. Samples were analyzed by LC-MS/MS, and the apparent permeability coefficients were calculated. Lucifer Yellow permeability was assayed for each cell monolayer to ensure cell monolayer integrity, and the permeability of Atenolol (low permeability marker) and Sulfasalazine (marker for active excretion) was determined for each batch as quality control.
# [2] = tested on: isolated Langendorff-perfused rat heart; assay: Isolated perfused heart according to Langendorff: perfusion pressure and wash-out score (C-1.2); conditions: for wash-out score: PP recovery after 60 min of washout related to maximum drop of PP; for wash-out score / effect on perfusion pressure (PP): comparative example 11 300 nmol/l, others 100 nmol/l, n=6; for Perfusion pressure (%) (timepoint at 20 min) Mean: isolated Langendorff-perfused rat heart; for Perfusion pressure (%) (timepoint at 90 min) Mean: wash-out phase
# Description: Male Wistar rats (strain HsdCpb:WU) with a body weight of 200-250 g were anaesthetized with Narcoren® (100 mg/kg). The thorax was opened and the heart was then exposed, excised and connected to a Langendorff apparatus by placing a cannula into the aorta. The heart was perfused retrogradely at 9 ml/min at constant flow with a Krebs-Henseleit buffer solution (gassed with 95% O2 and 5% CO2, pH 7.4, 35° C.; composition in mmol/l: NaCl 118; KCl 3; NaHCO3 22; KH2PO4 1.2; MgSO4 1.2; CaCl2 1.8; Glucose 10; Na pyruvate 2). A pressure transducer registered the perfusion pressure in the perfusion system. The left ventricular pressure (LVP) was measured using a second pressure transducer connected to a water-filled balloon which was inserted into the left ventricle via the left atrium. The end diastolic pressure was initially set to 8 mm Hg by adjusting the volume of the balloon. The hearts were spontaneously beating. The signals from the pressure transducer were amplified, registered by a personal computer (Powerlab Chart software, ADInstruments).
# Then the hearts were perfused for a further 120 min without the test substance (wash-out phase). The reversibility of the effect (wash-out score) was calculated as a percentage of the PP recovery after 60 min of washout related to the maximum drop of PP induced by the test compound. The wash-out score obtained in this manner was taken as a measure for the residence time of the test substance at the site of action.
# [3] = Protein binding via Transil assay, monkey plasma; format: in vitro ADME; conditions: Monkey Cynomolgus plasma
# From the text: The distribution of a test substance between Transil® (phosphatidylcholine lipid bilayers immobilized on silica beads) and plasma is a characteristic feature of any pharmaceutical compound and is dependent on its extent of binding to plasma proteins. By comparing the distribution between Transil® and buffer with the distribution between Transil® and plasma of any species of interest, the unbound fraction in the plasma of the respective animal species can be calculated in vitro. The respective plasma and buffer concentrations were determined via a radioactivity analysis. A detailed description of the method and its validation was published by Schuhmacher et al. (2).
compound,measurement,setting,value
"O=C(O)CCCCN(CCc1ccccc1OCc1ccc(CCc2ccccc2)cc1)Cc1ccc(C(=O)O)cc1 [comparative example 1, 4-[((4Carboxybutyl)-{2-[(4-phenethylbenzyl)oxy]phenethyl}amino)methyl]benzoic acid]",IC50,"rabbit saphenous artery; 0.5 h, 30 min after incubation",17 nM
same,IC50,rabbit saphenous artery; preincubation period of 2.5 h,3 nM
same,"efflux ratio at 2 h, 2 μM",[1],20 ± 3.5
same,"Papp A→B at 2 h, 2 μM",[1],3.1 ± 0.39 ×10⁻⁶ cm/s
same,"Papp B→A at 2 h, 2 μM",[1],63.1 ± 7.1 ×10⁻⁶ cm/s
same,wash-out score,[2],30%
same,effect on perfusion pressure (PP),[2],pronounced reduction of perfusion pressure
same,fraction unbound,[3],0.000799
"O=C(O)c1ccc(CCN(CCc2ccccc2OCc2ccc(-c3ccc(C(F)(F)F)cc3)cc2Cl)[C@H]2CCCc3nc(C(=O)O)ccc32)cc1 [comparative example 11, (5S)-5-{[2-(4-carboxyphenyl)ethyl][2-(2-{[3-chloro-4′-(trifluoromethyl)[biphenyl]-4-yl]methoxy}phenyl)ethyl]amino}-5,6,7,8-tetrahydroquinoline-2-carboxylic acid]",% contraction (PE-induced contraction of rabbit saphenous artery),"rabbit saphenous artery; 10^−5 M/L, incubation time 0.5 h",19 ± 3.0%
same,% contraction (PE-induced contraction of rabbit saphenous artery),"rabbit saphenous artery; 10^−6 M/L, incubation time 0.5 h",59 ± 4.9%
same,% contraction (PE-induced contraction of rabbit saphenous artery),"rabbit saphenous artery; 10^−7 M/L, incubation time 0.5 h",80 ± 4.6%
same,% contraction (PE-induced contraction of rabbit saphenous artery),"rabbit saphenous artery; 10^−8 M/L, incubation time 0.5 h",92 ± 3.0%
same,% contraction (PE-induced contraction of rabbit saphenous artery),"rabbit saphenous artery; 10^−8 M/L, incubation time 2.5 h",29 ± 9.3%
same,% contraction (PE-induced contraction of rabbit saphenous artery),"rabbit saphenous artery; 10^−9 M/L, incubation time 0.5 h",103 ± 3.5%
same,% contraction (PE-induced contraction of rabbit saphenous artery),"rabbit saphenous artery; 10^−9 M/L, incubation time 2.5 h",47 ± 6.2%
same,% contraction (PE-induced contraction of rabbit saphenous artery),"rabbit saphenous artery; 10^−10 M/L, incubation time 0.5 h",99 ± 3.4%
same,% contraction (PE-induced contraction of rabbit saphenous artery),"rabbit saphenous artery; 10^−10 M/L, incubation time 2.5 h",67 ± 5.7%
same,% contraction (PE-induced contraction of rabbit saphenous artery),"rabbit saphenous artery; 10^−11 M/L, incubation time 0.5 h",100 ± 1.5%
same,% contraction (PE-induced contraction of rabbit saphenous artery),"rabbit saphenous artery; 10^−11 M/L, incubation time 2.5 h",91 ± 2.0%
same,% contraction (PE-induced contraction of rabbit saphenous artery),"rabbit saphenous artery; 10^−12 M/L, incubation time 2.5 h",98 ± 0%
same,IC50,"rabbit saphenous artery; 0.5 h, 30 min after incubation",911 nM
same,IC50,rabbit saphenous artery; preincubation period of 2.5 h,0.8 nM
same,"Papp at 2 h, 2 μM","[1]; Caco-2, 2 μM, 2 h at 37° C.",1.51 ×10⁻⁶ cm/s
same,"efflux ratio at 2 h, 2 μM",[1],0.64 ± 0.1
same,"Papp A→B at 2 h, 2 μM",[1],1.51 ± 0.17 ×10⁻⁶ cm/s
same,"Papp B→A at 2 h, 2 μM",[1],0.97 ± 0.06 ×10⁻⁶ cm/s
same,Wash-out score (%) after 60 min,[2]; 300 nmol/l,2.9%
same,Perfusion pressure (%) (timepoint at 20 min) Mean,[2]; 300 nmol/l,69.0%
same,Perfusion pressure (%) (timepoint at 90 min) Mean,[2]; 300 nmol/l,71.9%
same,wash-out score,[2],2.9%
same,effect on perfusion pressure (PP),[2],pronounced reduction of perfusion pressure
same,fraction unbound,[3],0.000485
"O=C(O)CCCCN(CCc1cc(F)ccc1OCc1ccc(-c2nc3cc(Cl)ccc3o2)cc1)C1CCCc2nc(C(=O)O)ccc21 (single isomer, unassigned) [comparative example 3, (5)-{(4-carboxybutyl)[2-(2-{[4-(5-chloro-1,3-benzoxazol-2-yl)benzyl]oxy}-5-fluorophenyl)ethyl]amino}-5,6,7,8-tetrahydroquinoline-2-carboxylic acid]",Wash-out score (%) after 60 min,[2]; 100 nmol/l,25.4%
same,Perfusion pressure (%) (timepoint at 20 min) Mean,[2]; 100 nmol/l,63.3%
same,Perfusion pressure (%) (timepoint at 90 min) Mean,[2]; 100 nmol/l,72.5%
same,wash-out score,[2],25.4%
same,effect on perfusion pressure (PP),[2],pronounced reduction of perfusion pressure
